Results: patent US11066445B2, “Immunomodulators acting as antagonists of PD-1” (Bristol-Myers Squibb Company, priority 2017, dated 2021)
pIC50: −log10 of the molar value. Starred links: 1 amine or outer side, 2 acyl side, 3 side chain; linkers in the order of their positions; H or OH if unused. Positions of bridges follow the written chain, without caps; N, C: chain ends. Non-standard residues stand in square brackets, D forms with d. Residues, ends and D or L forms follow the SMILES beside them. *: point of attachment. X3 = O=C(O)CCCCCCCCCCCCCCCCC(=O)N[C@@H](CCC(=O)NCCCOCCOCCOCCCN*)C(=O)O; Trp(1-CH2CONHSO2Me) = CS(=O)(=O)NC(=O)Cn1cc(C[C@H](N)C(=O)O)c2ccccc21; Trp(4-aza,1-CH2COOH) = N[C@@H](Cc1cn(CC(=O)O)c2cccnc12)C(=O)O; Trp(1-CH2CO2Me) = COC(=O)Cn1cc(C[C@H](N)C(=O)O)c2ccccc21; X4 = O=C(O)Cn1nc(C[C@H](N[*:1])C(=O)[*:2])c2ccccc21; d(cisHyp) = O=C(O)[C@H]1C[C@@H](O)CN1; Hyp = O=C(O)[C@@H]1C[C@@H](O)CN1; NMeNle = CCCC[C@H](NC)C(=O)O; NMeA = CN[C@@H](C)C(=O)O; Dab = NCC[C@H](N)C(=O)O; Dap = NC[C@H](N)C(=O)O; Sar = CNCC(=O)O

Target: T1, PD-1-Ig binding to PD-L1-TVMV-His (PD-L1-His) (Homo sapiens, UniProt Q9NZQ7)
T1 construct: hPDL1(19-239)-TVMV-His; TVMV protease cleavage site (C); made in house; host or cells: HEK293T cells
T1 sequence (Q9NZQ7 with tags, fused parts or gaps): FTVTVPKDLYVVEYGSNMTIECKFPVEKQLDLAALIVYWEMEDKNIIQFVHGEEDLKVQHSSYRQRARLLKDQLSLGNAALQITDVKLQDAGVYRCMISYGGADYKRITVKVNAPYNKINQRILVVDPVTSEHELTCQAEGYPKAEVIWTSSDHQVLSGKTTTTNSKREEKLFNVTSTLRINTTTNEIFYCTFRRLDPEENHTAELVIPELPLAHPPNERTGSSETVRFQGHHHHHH
Experiment: PD-1/PD-L1 Homogenous Time-Resolved Fluorescence (HTRF) binding assay
Conditions: PD-1-Ig (20 nM) / PD-L1-His (10 nM); numeric values; read-out: LE HTRF hPD1 hPDL1 IC50
Excerpt: Methods for Testing the Ability of Macrocyclic Peptides to Compete for the Binding of Pd-1 to Pd-L1 Using Homogenous Time-Resolved Fluorescence (HTRF) Binding Assays
The ability of the macrocyclic peptides of the present disclosure to bind to PD-L1 was investigated using a PD-1/PD-L1 Homogenous Time-Resolved Fluorescence (HTRF) binding assay.
Homogenous Time-Resolved Fluorescence (HTRF) Assays of Binding of Soluble PD-1 to Soluble PD-L1. Soluble PD-1 and soluble PD-L1 refers to proteins with carboxyl-end truncations that remove the transmembrane-spanning regions and are fused to heterologous sequences, specifically the Fc portion of the human immunoglobuling G sequence (Ig) or the hexahistidine epitope tag (His). All binding studies were performed in an HTRF assay buffer consisting of dPBS supplemented with 0.1% (w/v) bovine serum albumin and 0.05% (v/v) Tween-20. For the PD-1-Ig/PD-L1-His binding assay, inhibitors were pre-incubated with PD-L1-His (10 nM final) for 15 m in 4 μl of assay buffer, followed by addition of PD-1-Ig (20 nM final) in 1 μl of assay buffer and further incubation for 15 m. PD-L1 fusion proteins from either human, cynomologous macaques, mouse, or other species were used. HTRF detection was achieved using europium crypate-labeled anti-Ig monoclonal antibody (1 nM final) and allophycocyanin (APC) labeled anti-His monoclonal antibody (20 nM final). Antibodies were diluted in HTRF detection buffer and 5 μl was dispensed on top of binding reaction. The reaction was allowed to equilibrate for 30 minutes and signal (665 nm/620 nm ratio) was obtained using an EnVision fluorometer. Additional binding assays were established between PD-1-Ig/PD-L2-His (20 and 5 nM, respectively), CD80-His/PD-L1-Ig (100 and 10 nM, respectively) and CD80-His/CTLA4-Ig (10 and 5 nM, respectively). Binding/competition studies between biotinylated Compound No. 71 and human PD-L1-His were performed as follows. Macrocyclic peptide inhibitors were pre-incubated with PD-L1-His (10 nM final) for 60 minutes in 4 μl of assay buffer followed by addition of biotinylated Compound No. 71 (0.5 nM final) in 1 μl of assay buffer. Binding was allowed to equilibrate for 30 minutes followed by addition of europium crypated labeled Streptavidin (2.5 pM final) and APC-labeled anti-His (20 nM final) in 5 μl of HTRF buffer. The reaction was allowed to equilibrate for 30 m and signal (665 nm/620 nm ratio) was obtained using an EnVision fluorometer.
Recombinant Proteins. Carboxyl-truncated human PD-1 (amino acids 25-167) with a C-terminal human Ig epitope tag [hPD-1 (25-167)-3S-IG] and human PD-L1 (amino acids 18-239) with a C-terminal His epitope tag [hPD-L1(19-239)-tobacco vein mottling virus protease cleavage site (TVMV)-His] were expressed in HEK293T cells and purified sequentially by recombinant Protein A affinity chromatography and size exclusion chromatography. Human PD-L2-His (Sino Biologicals), CD80-His (Sino Biologicals), CTLA4-Ig (RnD Systems) were all obtained through commercial sources.
Ranges are as follows: A=0.010-0.060 μM; B=0.0011-0.009 μM; C=0.0003-0.0010 μM.

Row | pIC50 | SMILES
1 | 8.92 | CCCC[C@H]1C(=O)N(C)[C@@H](CCCC)C(=O)N[C@@H](CC(C)C)C(=O)N[C@H](C(=O)NCC(=O)N[C@@H](CC(=O)NCCCOCCOCCOCCCNC(=O)CC[C@H](NC(=O)CCCCCCCCCCCCCCCCC(=O)O)C(=O)O)C(=O)O)CSCC(=O)N[C@@H](Cc2ccc(O)cc2)C(=O)N(C)[C@@H](C)C(=O)N[C@@H](CC(N)=O)C(=O)N2CCC[C@H]2C(=O)N[C@@H](CN)C(=O)N[C@@H](CC(C)C)C(=O)N2C[C@H](O)C[C@H]2C(=O)N[C@@H](Cc2c[nH]c3ccccc23)C(=O)N[C@@H](CCN)C(=O)N[C@@H](Cc2cn(CC(=O)NS(C)(=O)=O)c3ccccc23)C(=O)N1C [Example 1] ({CH2CO}-Y[NMeA]NP[Dap]L[Hyp]W[Dab][Trp(1-CH2CONHSO2Me)][NMeNle][NMeNle]LCGD(X3)-OH; thioether N-14)

Same assay, conditions: PD-1-Ig (20 nM) / PD-L1-His (10 nM); range classes; read-out: LE HTRF hPD1 hPDL1 IC50

Row | pIC50 | SMILES
2 | 8.05 to 8.96 | CCCC[C@H]1C(=O)N(C)[C@@H](CCCC)C(=O)N[C@@H](CC(C)C)C(=O)N[C@H](C(=O)NCC(=O)N[C@@H](CC(=O)NCCCOCCOCCOCCCNC(=O)CC[C@H](NC(=O)CCCCCCCCCCCCCCCCC(=O)O)C(=O)O)C(=O)O)CSCC(=O)N[C@@H](Cc2ccc(O)cc2)C(=O)N(C)[C@@H](C)C(=O)N[C@@H](CC(N)=O)C(=O)N(C)CC(=O)N[C@@H](CN)C(=O)N[C@@H](CC(C)C)C(=O)N2C[C@H](O)C[C@H]2C(=O)N[C@@H](Cc2c[nH]c3ccccc23)C(=O)N[C@@H](CCN)C(=O)N[C@@H](Cc2cn(CC(=O)NS(C)(=O)=O)c3ccccc23)C(=O)N1C [Example 2] ({CH2CO}-Y[NMeA]N[Sar][Dap]L[Hyp]W[Dab][Trp(1-CH2CONHSO2Me)][NMeNle][NMeNle]LCGD(X3)-OH; thioether N-14)
3 | 8.05 to 8.96 | CCCC[C@H]1C(=O)N(C)[C@@H](CCCC)C(=O)N[C@@H](CC(C)C)C(=O)N[C@H](C(=O)NCC(=O)NCCCOCCOCCOCCCNC(=O)CC[C@H](NC(=O)CCCCCCCCCCCCCCCCC(=O)O)C(=O)O)CSCC(=O)N[C@@H](Cc2ccc(O)cc2)C(=O)N(C)[C@@H](C)C(=O)N[C@@H](CC(N)=O)C(=O)N2CCC[C@H]2C(=O)N[C@@H](CN)C(=O)N[C@@H](CC(C)C)C(=O)N2C[C@H](O)C[C@H]2C(=O)N[C@@H](Cc2c[nH]c3ccccc23)C(=O)N[C@@H](CCN)C(=O)N[C@@H](Cc2cn(CC(=O)NS(C)(=O)=O)c3ccccc23)C(=O)N1C [Example 3] ({CH2CO}-Y[NMeA]NP[Dap]L[Hyp]W[Dab][Trp(1-CH2CONHSO2Me)][NMeNle][NMeNle]LCG-X3; thioether N-14)
4 | 8.05 to 8.96 | CCCC[C@H]1C(=O)N(C)[C@@H](CCCC)C(=O)N[C@@H](CC(C)C)C(=O)N[C@H](C(=O)NCC(=O)NCCCOCCOCCOCCCNC(=O)CC[C@H](NC(=O)CCCCCCCCCCCCCCCCC(=O)O)C(=O)O)CSCC(=O)N[C@@H](Cc2ccc(O)cc2)C(=O)N(C)[C@@H](C)C(=O)N[C@@H](CC(N)=O)C(=O)N(C)CC(=O)N[C@@H](CN)C(=O)N[C@@H](CC(C)C)C(=O)N2C[C@H](O)C[C@H]2C(=O)N[C@@H](Cc2c[nH]c3ccccc23)C(=O)N[C@@H](CCN)C(=O)N[C@@H](Cc2cn(CC(=O)NS(C)(=O)=O)c3ccccc23)C(=O)N1C [Example 4] ({CH2CO}-Y[NMeA]N[Sar][Dap]L[Hyp]W[Dab][Trp(1-CH2CONHSO2Me)][NMeNle][NMeNle]LCG-X3; thioether N-14)
5 | 8.05 to 8.96 | CCCC[C@H]1C(=O)N(C)[C@@H](CCCC)C(=O)N[C@@H](CC(C)C)C(=O)N[C@H](C(=O)NCC(=O)N[C@@H](CC(=O)NCCCOCCOCCOCCCNC(=O)CC[C@H](NC(=O)CCCCCCCCCCCCCCCCC(=O)O)C(=O)O)C(=O)O)CSCC(=O)N[C@@H](Cc2ccc(O)cc2)C(=O)N(C)[C@@H](C)C(=O)N[C@@H](CC(N)=O)C(=O)N2CCC[C@H]2C(=O)N[C@@H](CN)C(=O)N[C@@H](CC(C)C)C(=O)N2C[C@H](O)C[C@H]2C(=O)N[C@@H](Cc2c[nH]c3ccccc23)C(=O)N[C@@H](CCN)C(=O)N[C@@H](Cc2cn(CC(=O)O)c3cccnc23)C(=O)N1C [Example 7] ({CH2CO}-Y[NMeA]NP[Dap]L[Hyp]W[Dab][Trp(4-aza,1-CH2COOH)][NMeNle][NMeNle]LCGD(X3)-OH; thioether N-14)

Further lines, the compound ahead of its results:

Row | SMILES | pIC50
6 | CCCC[C@H]1C(=O)N(C)[C@@H](CCCC)C(=O)N[C@@H](CC(C)C)C(=O)N[C@H](C(=O)NCC(=O)N[C@@H](CC(=O)NCCCOCCOCCOCCCNC(=O)CC[C@H](NC(=O)CCCCCCCCCCCCCCCCC(=O)O)C(=O)O)C(=O)O)CSCC(=O)N[C@@H](Cc2ccc(O)cc2)C(=O)N(C)[C@@H](C)C(=O)N[C@@H](CC(N)=O)C(=O)N2CCC[C@H]2C(=O)N[C@@H](CN)C(=O)N[C@@H](CC(C)C)C(=O)N2C[C@H](O)C[C@H]2C(=O)N[C@@H](Cc2c[nH]c3ccccc23)C(=O)N[C@@H](CCN)C(=O)N[C@@H](Cc2nn(CC(=O)O)c3ccccc23)C(=O)N1C [Example 5] ({CH2CO}-Y[NMeA]NP[Dap]L[Hyp]W[Dab][X4][NMeNle][NMeNle]LCGD(X3)-OH; thioether N-14) | 8.05 to 8.96
7 | CCCC[C@H]1C(=O)N(C)[C@@H](CCCC)C(=O)N[C@@H](CC(C)C)C(=O)N[C@H](C(=O)NCC(=O)N[C@@H](CC(=O)NCCCOCCOCCOCCCNC(=O)CC[C@H](NC(=O)CCCCCCCCCCCCCCCCC(=O)O)C(=O)O)C(=O)O)CSCC(=O)N[C@@H](Cc2ccc(O)cc2)C(=O)N(C)[C@@H](C)C(=O)N[C@@H](CC(N)=O)C(=O)N(C)CC(=O)N[C@@H](CN)C(=O)N[C@@H](CC(C)C)C(=O)N2C[C@H](O)C[C@H]2C(=O)N[C@@H](Cc2c[nH]c3ccccc23)C(=O)N[C@@H](CCN)C(=O)N[C@@H](Cc2nn(CC(=O)O)c3ccccc23)C(=O)N1C [Example 6] ({CH2CO}-Y[NMeA]N[Sar][Dap]L[Hyp]W[Dab][X4][NMeNle][NMeNle]LCGD(X3)-OH; thioether N-14) | 8.05 to 8.96
8 | CCCC[C@H]1C(=O)N(C)[C@@H](CCCC)C(=O)N[C@@H](CC(C)C)C(=O)N[C@H](C(=O)NCC(=O)N[C@@H](CC(=O)NCCCOCCOCCOCCCNC(=O)CC[C@H](NC(=O)CCCCCCCCCCCCCCCCC(=O)O)C(=O)O)C(=O)O)CSCC(=O)N[C@@H](Cc2ccc(O)cc2)C(=O)N(C)[C@@H](C)C(=O)N[C@@H](CC(N)=O)C(=O)N(C)CC(=O)N[C@@H](CN)C(=O)N[C@@H](CC(C)C)C(=O)N2C[C@H](O)C[C@@H]2C(=O)N[C@@H](Cc2c[nH]c3ccccc23)C(=O)N[C@@H](CCN)C(=O)N[C@@H](Cc2cn(CC(=O)O)c3cccnc23)C(=O)N1C [Example 8] ({CH2CO}-Y[NMeA]N[Sar][Dap]L[d(cisHyp)]W[Dab][Trp(4-aza,1-CH2COOH)][NMeNle][NMeNle]LCGD(X3)-OH; thioether N-14) | 8.05 to 8.96
9 | CCCC[C@H]1C(=O)N(C)[C@@H](CCCC)C(=O)N[C@@H](CC(C)C)C(=O)N[C@H](C(=O)NCC(=O)N[C@@H](CC(=O)NCCCOCCOCCOCCCNC(=O)CC[C@H](NC(=O)CCCCCCCCCCCCCCCCC(=O)O)C(=O)O)C(=O)O)CSCC(=O)N[C@@H](Cc2ccc(O)cc2)C(=O)N(C)[C@@H](C)C(=O)N[C@@H](CC(N)=O)C(=O)N2CCC[C@H]2C(=O)N[C@@H](CN)C(=O)N[C@@H](CC(C)C)C(=O)N2C[C@H](O)C[C@H]2C(=O)N[C@@H](Cc2c[nH]c3ccccc23)C(=O)N[C@@H](CCN)C(=O)N[C@@H](Cc2cn(CC(=O)OC)c3ccccc23)C(=O)N1C [Example 9] ({CH2CO}-Y[NMeA]NP[Dap]L[Hyp]W[Dab][Trp(1-CH2CO2Me)][NMeNle][NMeNle]LCGD(X3)-OH; thioether N-14) | 9.00 to 9.52
